Measurements from article PMC13056558 (Nature Microbiology, 2026).
pEC50: −log10 of the molar value.

Legend:
thiol peroxidase HpTpx [1] = target: T1, thiol peroxidase HpTpx (Helicobacter pylori, UniProt O25151); experiment: Gel-based in situ competitive labelling against Metro-P3 (ABPP); format: cell-based; parameters: gene tpx; endogenous, H. pylori 26695 live cells
T1 sequence (O25151 2-166): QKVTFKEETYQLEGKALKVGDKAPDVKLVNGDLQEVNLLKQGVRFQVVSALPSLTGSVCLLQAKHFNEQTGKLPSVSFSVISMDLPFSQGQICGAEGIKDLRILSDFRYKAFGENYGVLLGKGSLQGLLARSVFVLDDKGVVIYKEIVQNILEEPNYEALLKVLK

[2] = target: T2, 60 kDa chaperonin HpGroEL (Helicobacter pylori, UniProt P42383); experiment: as above; format: cell-based; parameters: gene groEL; endogenous, H. pylori 26695 live cells
thiol peroxidase HpTpx [3] = target: T3, thiol peroxidase HpTpx (Helicobacter pylori, UniProt O25151, C94A); experiment: X-ray co-crystal structure, […] Å (reduced amine form Metro*); format: binding
T3 construct: gene tpx

thiol peroxidase HpTpx [4] = target: T1, thiol peroxidase HpTpx; experiment: Intact protein MS and peroxidase assay of modified enzyme; EC50 is from in situ competition with Metro-P3 in H. pylori; format: cell-based; parameters: gene tpx; recombinant HpTpx wild type, modified during anaerobic expression in E. coli
[5] = target: T2, 60 kDa chaperonin HpGroEL; experiment: Intact protein MS and malachite green ATPase assay of modified enzyme; EC50 is from in situ competition with Metro-P3 in H. pylori; format: cell-based; parameters: gene groEL; recombinant HpGroEL, modified during anaerobic expression in E. coli
[6] = target: T2, 60 kDa chaperonin HpGroEL; experiment: In situ ABPP labelling ([…]), gel and LC-MS/MS, competed by Metro; format: cell-based; parameters: gene groEL; endogenous, H. pylori 26695 live cells
thiol peroxidase HpTpx [7] = target: T1, thiol peroxidase HpTpx; experiment: as above; format: cell-based; parameters: gene tpx; endogenous, H. pylori 26695 live cells

T2 sequence (P42383 whole entry): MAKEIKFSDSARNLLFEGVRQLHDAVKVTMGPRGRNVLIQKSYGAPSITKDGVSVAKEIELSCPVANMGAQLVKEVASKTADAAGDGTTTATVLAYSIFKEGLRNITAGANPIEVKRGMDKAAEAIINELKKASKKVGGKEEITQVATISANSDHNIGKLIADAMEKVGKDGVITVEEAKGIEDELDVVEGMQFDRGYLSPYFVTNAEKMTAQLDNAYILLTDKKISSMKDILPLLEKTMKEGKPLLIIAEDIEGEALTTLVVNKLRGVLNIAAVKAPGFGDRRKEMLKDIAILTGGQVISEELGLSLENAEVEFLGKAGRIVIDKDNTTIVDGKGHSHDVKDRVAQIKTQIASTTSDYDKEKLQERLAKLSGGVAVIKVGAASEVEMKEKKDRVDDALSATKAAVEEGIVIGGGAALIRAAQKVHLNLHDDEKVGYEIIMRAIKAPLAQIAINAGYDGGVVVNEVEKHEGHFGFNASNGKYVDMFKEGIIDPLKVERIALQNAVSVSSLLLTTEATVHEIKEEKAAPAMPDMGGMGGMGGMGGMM

Structure (SMILES): CCOCCn1c([N+](=O)[O-])cnc1C [MF-03]
- pEC50 (thiol peroxidase HpTpx [1]): 4.77
- pEC50 [2]: 4.40

Structure (SMILES): Cc1ncc([N+](=O)[O-])n1CCO [Metro, Metronidazole]
- X-ray co-crystal structure, 1.75 Å (reduced amine form Metro*) (thiol peroxidase HpTpx [3]): forms an irreversible thioether bond with the CP residue
- pEC50 (thiol peroxidase HpTpx [4]): 3.60
- pEC50 [5]: 4.62

Structure (SMILES): C#CCOCCn1c([N+](=O)[O-])cnc1C [Metro-P1]
- In situ ABPP labelling (1 μM), gel and LC-MS/MS, competed by Metro [6]: a 60-kDa band decreased for all three probes
- In situ ABPP labelling (1 μM), gel and LC-MS/MS, competed by Metro (thiol peroxidase HpTpx [7]): 18-kDa HpTpx band was solely diminished in case of ether derivatives Metro-P1 and Metro-P3 upon Metro pre-incubation
